Experimental data published in the supplement of paper PMC10307832.

Key:
Assay in all cases: relative viability (nuclei count vs DMSO), 5 days (fraction); higher = more cells survive
[1] = compound: CC(C)CCN1c2nc(Nc3cc(F)c(O)c(F)c3)ncc2N(C)C(=O)C1C [BI-D1870] + CC(C)C[C@H](NC(=O)[C@H](Cc1ccccc1)NC(=O)c1cnccn1)B(O)O [Bortezomib] (partner 0.002 µM)
Summary of the method: (§1)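 The day after seeding in 1536-well plates, lung cancer cell lines were treated by pin tool with a single drug, or with a fixed anchor-drug dose together with five library-drug doses (not always all listed) in √10 steps. After 5 days, a combined fix-and-stain solution (final 0.05% Triton X-100, 1% formaldehyde, 1 ug/ml Hoechst) was added. Nuclei counted on 4× images gave relative viability as treated counts over vehicle counts, reported as the median of duplicate plates.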

[2] = compound: CC(C)CCN1c2nc(Nc3cc(F)c(O)c(F)c3)ncc2N(C)C(=O)C1C [BI-D1870] + CS(=O)(=O)N1CCN(Cc2cc3nc(-c4cccc5[nH]ncc45)nc(N4CCOCC4)c3s2)CC1 [Pictilisib] (partner 1 µM)
Summary of the method: as §1

[3] = compound: CC(C)CCN1c2nc(Nc3cc(F)c(O)c(F)c3)ncc2N(C)C(=O)C1C [BI-D1870] + O=C(c1cc(Cc2n[nH]c(=O)c3ccccc23)ccc1F)N1CCN(C(=O)C2CC2)CC1 [Olaparib] (partner 8 µM)
Summary of the method: as §1

[4] = compound: O=c1ncccn1[C@@H]1O[C@H](CO)[C@@H](O)[C@H]1O [Zebularine] + Cc1nc(Nc2ncc(C(=O)Nc3c(C)cccc3Cl)s2)cc(N2CCN(CCO)CC2)n1 [Dasatinib] (partner 0.075 µM)
Summary of the method: as §1

Row | Cell Line | relative viability ([1]; first compound 0.04 µM) | relative viability ([1]; first compound 0.1265 µM) | relative viability ([1]; first compound 0.4 µM) | relative viability ([1]; first compound 1.265 µM) | relative viability ([1]; first compound 4 µM) | relative viability ([2]; first compound 0.04 µM) | relative viability ([2]; first compound 0.1265 µM) | relative viability ([2]; first compound 0.4 µM) | relative viability ([2]; first compound 1.265 µM) | relative viability ([2]; first compound 4 µM) | relative viability ([3]; first compound 0.04 µM) | relative viability ([3]; first compound 0.1265 µM) | relative viability ([3]; first compound 0.4 µM) | relative viability ([3]; first compound 1.265 µM) | relative viability ([3]; first compound 4 µM) | relative viability ([4]; first compound 1 µM) | relative viability ([4]; first compound 3.162 µM) | relative viability ([4]; first compound 10 µM) | relative viability ([4]; first compound 31.62 µM) | relative viability ([4]; first compound 100 µM)
1 | NCI-H838 | 0.901 | 0.72 | 0.747 | 1.14 | 0.768 | 0.442 | 0.421 | 0.529 | 0.498 | 0.574 | 0.792 | 0.719 | 0.74 | 0.855 | 0.663 | 0.318 | 0.238 | 0.239 | 0.268 | 0.278
2 | NCI-H1355 | 1.24 | 1.22 | 1.21 | 1.28 | 1.02 | 0.433 | 0.365 | 0.398 | 0.504 | 0.323 | 0.898 | 0.698 | 0.713 | 0.74 | 0.57 | 0.757 | 0.746 | 0.525 | 0.617 | 0.458
3 | NCI-H1437 | 0.539 | 0.474 | 0.478 | 0.466 | 0.423 | 0.418 | 0.348 | 0.415 | 0.408 | 0.389 | 0.617 | 0.577 | 0.578 | 0.578 | 0.445 | 0.521 | 0.462 | 0.333 | 0.531 | 0.459
4 | NCI-H1650 | 0.214 | 0.223 | 0.209 | 0.184 | 0.186 | 0.632 | 0.484 | 0.527 | 0.533 | 0.558 | 0.722 | 0.767 | 0.788 | 0.943 | 0.817 | 0.384 | 0.366 | 0.324 | 0.342 | 0.312
5 | NCI-H1651 | 1.06 | 0.943 | 0.885 | 1.01 | 0.903 | 0.549 | 0.423 | 0.566 | 0.516 | 0.551 | 0.2 | 0.157 | 0.175 | 0.187 | 0.178 | 0.399 | 0.359 | 0.343 | 0.53 | 0.247
6 | NCI-H1666 | 0.871 | 0.598 | 0.985 | 0.879 | 0.754 | 0.655 | 0.442 | 0.409 | 0.584 | 0.321 | 0.751 | 0.715 | 0.736 | 0.7 | 0.72 | 0.828 | 0.817 | 0.714 | 0.993 | 0.689
7 | NCI-H1734 | 1.21 | 0.904 | 0.874 | 0.893 | 0.602 | 0.5 | 0.401 | 0.434 | 0.472 | 0.358 | 0.684 | 0.545 | 0.605 | 0.673 | 0.463 | 0.546 | 0.486 | 0.333 | 0.297 | 0.281
8 | NCI-H1755 | 1.07 | 0.921 | 0.949 | 1.09 | 0.937 | 0.474 | 0.408 | 0.469 | 0.431 | 0.35 | 0.855 | 0.842 | 0.893 | 0.896 | 0.82 | 0.494 | 0.452 | 0.342 | 0.49 | 0.435
9 | NCI-H1792 | 1.03 | 0.915 | 0.942 | 1.13 | 0.841 | 0.248 | 0.274 | 0.24 | 0.297 | 0.227 | 0.434 | 0.334 | 0.369 | 0.812 | 0.315 | 0.71 | 0.713 | 0.262 | 0.421 | 0.414
10 | NCI-H1915 | 1.04 | 0.951 | 0.905 | 1.03 | 0.879 | 1.08 | 0.914 | 0.907 | 0.897 | 0.671 | 0.249 | 0.24 | 0.267 | 0.206 | 0.146 | 0.362 | 0.328 |  | 0.374 | 0.287
11 | NCI-H1975 | 0.487 | 0.44 | 0.386 | 0.339 | 0.175 | 0.297 | 0.276 | 0.288 | 0.299 | 0.208 | 0.869 | 0.708 | 0.784 | 0.731 | 0.499 | 0.328 | 0.408 | 0.253 | 0.247 | 0.173
12 | NCI-H1993 | 1.22 | 0.961 | 1.12 | 1.31 | 0.981 | 0.864 | 0.704 | 0.769 | 0.71 | 0.622 | 1.26 | 0.907 | 0.987 | 1.15 | 0.995 | 0.658 | 0.609 | 0.48 | 0.498 | 0.496
13 | NCI-H2009 | 1.03 | 0.934 | 1.01 | 0.866 | 0.246 | 0.949 | 0.77 | 0.719 | 0.633 | 0.318 | 0.831 | 0.826 | 0.602 | 0.619 | 0.583 | 0.371 | 0.316 | 0.263 | 0.309 | 0.231
14 | NCI-H2023 | 1.2 | 0.901 | 0.957 | 0.95 | 0.647 | 0.271 | 0.199 | 0.221 | 0.235 | 0.153 | 0.504 | 0.444 | 0.4 | 0.44 | 0.252 | 0.636 | 0.572 | 0.423 | 0.392 | 0.213
15 | NCI-H2085 | 1.17 | 0.994 | 0.947 | 0.968 | 0.762 | 0.439 | 0.494 | 0.413 | 0.518 | 0.558 | 0.813 | 0.768 | 0.737 | 0.702 | 0.429 | 0.209 | 0.226 | 0.243 | 0.222 | 0.246
16 | NCI-H2087 | 0.829 | 0.845 | 0.927 | 1.13 | 0.839 | 0.963 | 0.867 | 0.86 | 1.03 | 0.665 | 0.708 | 0.519 | 0.572 | 0.563 | 0.564 | 1.14 | 0.786 | 0.426 | 0.972 | 0.631
17 | NCI-H2126 | 1.12 | 1.1 | 1.06 | 1.14 | 1.05 | 0.556 | 0.491 | 0.45 | 0.461 | 0.386 | 0.97 | 0.928 | 0.895 | 0.885 | 0.859 | 0.813 | 0.538 | 0.612 | 0.569 | 0.488
18 | NCI-H2228 | 1.36 | 0.999 | 1.37 | 1.05 | 0.401 | 0.395 | 0.356 | 0.448 | 0.468 | 0.225 | 0.678 | 0.429 | 0.511 | 0.717 | 0.314 | 0.606 | 0.518 | 0.322 | 0.448 | 0.222
19 | NCI-H2347 | 1.04 | 0.856 | 1.14 | 1.24 | 0.915 | 0.797 | 0.466 | 0.662 | 0.649 | 0.44 | 0.547 | 0.589 | 0.552 | 0.633 | 0.487 | 0.309 | 0.322 | 0.302 | 0.227 | 0.254
20 | NCI-H2405 | 1.07 | 0.89 | 0.959 | 1.02 | 1.02 | 0.549 | 0.479 | 0.442 | 0.458 | 0.418 | 0.874 | 0.826 | 0.89 | 0.802 | 0.814 | 0.229 | 0.213 | 0.207 | 0.188 | 0.211
21 | NCI-H3122 | 1 | 0.932 | 1.05 | 1.03 | 0.996 | 0.632 | 0.434 | 0.604 | 0.653 | 0.62 | 0.576 | 0.562 | 0.566 | 0.631 | 0.588 | 0.981 | 0.79 |  | 0.889 | 0.918
22 | PC-3 [JPC-3] | 0.74 | 0.859 | 0.825 | 0.889 | 0.829 | 0.768 | 0.71 | 0.699 | 0.793 | 0.645 | 1.25 | 1.08 | 1.08 | 0.966 | 0.831 | 1.05 | 1.05 | 0.61 | 0.979 | 0.79
23 | PC-14 | 0.95 | 0.909 | 0.809 | 0.963 | 0.559 | 0.769 | 0.688 | 0.557 | 0.537 | 0.438 | 0.364 | 0.251 | 0.273 | 0.197 | 0.138 | 0.301 | 0.198 | 0.224 | 0.0811 | 0.0854
24 | RERF-LC-KJ | 1.12 | 0.997 | 1.13 | 1.25 | 0.946 | 0.546 | 0.501 | 0.451 | 0.597 | 0.459 | 1.09 | 0.831 | 0.936 | 0.914 | 0.306 | 0.92 | 0.81 | 0.759 | 0.999 | 0.956
25 | SK-LU-1 | 1.16 | 1.07 | 1.04 | 1.49 | 0.823 | 0.543 | 0.544 | 0.604 | 0.576 | 0.343 | 0.497 | 0.377 | 0.41 | 0.427 | 0.35 | 0.168 | 0.184 | 0.162 | 0.172 | 0.144
26 | SW 1573 | 1.08 | 0.907 | 0.883 | 0.986 | 0.577 | 0.6 | 0.414 | 0.47 | 0.402 | 0.368 | 0.602 | 0.415 | 0.432 | 0.419 | 0.191 | 0.555 | 0.523 |  | 0.548 | 0.475
27 | UMC-11 | 0.788 | 0.647 | 0.561 | 0.712 | 0.553 | 0.908 | 0.608 | 0.759 | 0.733 | 0.316 | 0.36 | 0.363 | 0.369 | 0.374 | 0.204 | 0.514 | 0.471 | 0.205 | 0.436 | 0.324
